# Test results published in PubChem BioAssay AID2060896 (Molecular Pharmacology Branch, DTP, NCI, 2025).
# System: 941728-121-R-J1-PDC complex spheroid viability
# Experiment: Anticancer human tumor 941728-121-R-J1-PDC patient-derived lung adenocarcinoma cell line growth inhibition [RAS]
# Conditions: for IC50: curve of first compound; for viability, T/C: stronger effect = lower value
# Procedure, shortened: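 Tumour cells grown as complex spheroids with HUVEC endothelial cells and mesenchymal stem cells, treated with RAS pathway inhibitor combinations. Each agent spans half-log steps from near clinical Cmax, or 10 microM where Cmax is unknown.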
# [1] = second compound 0.000949 µM, first compound 0.00316 µM
# [2] = second compound 0.000949 µM, first compound 0.01 µM
# [3] = second compound 0.000949 µM, first compound 0.0316 µM
# [4] = second compound 0.000949 µM, first compound 0.1 µM
# [5] = second compound 0.000949 µM, first compound 0.316 µM
# [6] = second compound 0.000949 µM, first compound 1 µM
# [7] = second compound 0.003 µM, first compound 0.00316 µM
# [8] = second compound 0.003 µM, first compound 0.01 µM
# [9] = second compound 0.003 µM, first compound 0.0316 µM
# [10] = second compound 0.003 µM, first compound 0.1 µM
# [11] = second compound 0.003 µM, first compound 0.316 µM
# [12] = second compound 0.003 µM, first compound 1 µM
# [13] = second compound 0.00949 µM, first compound 0.00316 µM
# [14] = second compound 0.00949 µM, first compound 0.01 µM
# [15] = second compound 0.00949 µM, first compound 0.0316 µM
# [16] = second compound 0.00949 µM, first compound 0.1 µM
# [17] = second compound 0.00949 µM, first compound 0.316 µM
# [18] = second compound 0.00949 µM, first compound 1 µM
# [19] = second compound 0.03 µM, first compound 0.00316 µM
# [20] = second compound 0.03 µM, first compound 0.01 µM
# [21] = second compound 0.03 µM, first compound 0.0316 µM
# [22] = second compound 0.03 µM, first compound 0.1 µM
# [23] = second compound 0.03 µM, first compound 0.316 µM
# [24] = second compound 0.03 µM, first compound 1 µM
# [25] = second compound 0.0949 µM, first compound 0.00316 µM
# [26] = second compound 0.0949 µM, first compound 0.01 µM
# [27] = second compound 0.0949 µM, first compound 0.0316 µM
# [28] = second compound 0.0949 µM, first compound 0.1 µM
# [29] = second compound 0.0949 µM, first compound 0.316 µM
# [30] = second compound 0.0949 µM, first compound 1 µM
# [31] = second compound 0.3 µM, first compound 0.00316 µM
# [32] = second compound 0.3 µM, first compound 0.01 µM
# [33] = second compound 0.3 µM, first compound 0.0316 µM
# [34] = second compound 0.3 µM, first compound 0.1 µM
# [35] = second compound 0.3 µM, first compound 0.316 µM
# [36] = second compound 0.3 µM, first compound 1 µM
# 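Note: spheroids exposed to compounds for 7 days before readout.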
# 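Throughout, for viability, T/C: 100% = DMSO vehicle control viability.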
smiles,measurement,setting,value
C=CC(=O)Nc1cc(Nc2nccc(-c3cn(C)c4ccccc34)n2)c(OC)cc1N(C)CCN(C)C + CCn1c(-c2cc(N3CCN(C)CC3)cnc2C(C)OC)c2c3cc(ccc31)-c1csc(n1)CC(NC(=O)C1CC1C)C(=O)N1CCCC(N1)C(=O)OCC(C)(C)C2,IC50,second compound 0.000949 µM,< 3.16 nM
same,IC50,second compound 0.003 µM,< 3.16 nM
same,IC50,second compound 0.00949 µM,< 3.16 nM
same,IC50,second compound 0.03 µM,< 3.16 nM
same,IC50,second compound 0.0949 µM,< 3.16 nM
same,IC50,second compound 0.3 µM,< 3.16 nM
same,"viability, T/C",[1],29.3%
same,"viability, T/C",[2],29.5%
same,"viability, T/C",[3],22.1%
same,"viability, T/C",[4],23.4%
same,"viability, T/C",[5],24.8%
same,"viability, T/C",[6],14%
same,"viability, T/C",[7],25.4%
same,"viability, T/C",[8],20.8%
same,"viability, T/C",[9],17.2%
same,"viability, T/C",[10],18.8%
same,"viability, T/C",[11],15.5%
same,"viability, T/C",[12],8.05%
same,"viability, T/C",[13],16.4%
same,"viability, T/C",[14],15%
same,"viability, T/C",[15],14.4%
same,"viability, T/C",[16],14.4%
same,"viability, T/C",[17],13.7%
same,"viability, T/C",[18],9.82%
same,"viability, T/C",[19],15.8%
same,"viability, T/C",[20],14.8%
same,"viability, T/C",[21],15.7%
same,"viability, T/C",[22],14.6%
same,"viability, T/C",[23],10.7%
same,"viability, T/C",[24],12%
same,"viability, T/C",[25],12.9%
same,"viability, T/C",[26],14.7%
same,"viability, T/C",[27],14.6%
same,"viability, T/C",[28],16.5%
same,"viability, T/C",[29],10.3%
same,"viability, T/C",[30],13.9%
same,"viability, T/C",[31],13.1%
same,"viability, T/C",[32],14.1%
same,"viability, T/C",[33],15%
same,"viability, T/C",[34],12.4%
same,"viability, T/C",[35],10.7%
same,"viability, T/C",[36],11.6%
CC(Nc1ccc2c(c1)OCCn1cc(N3C(=O)OCC3C(F)F)nc1-2)C(N)=O (stereo unspecified) + CCn1c(-c2cc(N3CCN(C)CC3)cnc2C(C)OC)c2c3cc(ccc31)-c1csc(n1)CC(NC(=O)C1CC1C)C(=O)N1CCCC(N1)C(=O)OCC(C)(C)C2,IC50,second compound 0.000949 µM,< 31.6 nM
same,IC50,second compound 0.003 µM,< 31.6 nM
same,IC50,second compound 0.00949 µM,< 31.6 nM
same,IC50,second compound 0.03 µM,< 31.6 nM
same,IC50,second compound 0.0949 µM,< 31.6 nM
same,IC50,second compound 0.3 µM,< 31.6 nM
same,"viability, T/C",[3],26%
same,"viability, T/C",[4],23.3%
same,"viability, T/C",[5],18.9%
same,"viability, T/C",[6],21.3%
same,"viability, T/C","second compound 0.000949 µM, first compound 3.16 µM",20.5%
same,"viability, T/C","second compound 0.000949 µM, first compound 10 µM",12.1%
same,"viability, T/C",[9],19.4%
same,"viability, T/C",[10],15.9%
same,"viability, T/C",[11],13.4%
same,"viability, T/C",[12],14.2%
same,"viability, T/C","second compound 0.003 µM, first compound 3.16 µM",11.7%
same,"viability, T/C","second compound 0.003 µM, first compound 10 µM",7.42%
same,"viability, T/C",[15],14.2%
same,"viability, T/C",[16],10.3%
same,"viability, T/C",[17],11.2%
same,"viability, T/C",[18],9.14%
same,"viability, T/C","second compound 0.00949 µM, first compound 3.16 µM",7.89%
same,"viability, T/C","second compound 0.00949 µM, first compound 10 µM",5.97%
same,"viability, T/C",[21],12.3%
same,"viability, T/C",[22],10.6%
same,"viability, T/C",[23],10.1%
same,"viability, T/C",[24],8.95%
same,"viability, T/C","second compound 0.03 µM, first compound 3.16 µM",11.8%
same,"viability, T/C","second compound 0.03 µM, first compound 10 µM",6.96%
same,"viability, T/C",[27],11.5%
same,"viability, T/C",[28],8.85%
same,"viability, T/C",[29],9.23%
same,"viability, T/C",[30],8.74%
same,"viability, T/C","second compound 0.0949 µM, first compound 3.16 µM",7.5%
same,"viability, T/C","second compound 0.0949 µM, first compound 10 µM",6.53%
same,"viability, T/C",[33],11.4%
same,"viability, T/C",[34],9.97%
same,"viability, T/C",[35],9.41%
same,"viability, T/C",[36],6.86%
same,"viability, T/C","second compound 0.3 µM, first compound 3.16 µM",6.29%
same,"viability, T/C","second compound 0.3 µM, first compound 10 µM",6.96%
O=C(c1ccc(F)c(F)c1Nc1ccc(I)cc1F)N1CC(O)([C@@H]2CCCCN2)C1 + CCn1c(-c2cc(N3CCN(C)CC3)cnc2C(C)OC)c2c3cc(ccc31)-c1csc(n1)CC(NC(=O)C1CC1C)C(=O)N1CCCC(N1)C(=O)OCC(C)(C)C2,IC50,second compound 0.000949 µM,< 3.16 nM
same,IC50,second compound 0.003 µM,< 3.16 nM
same,IC50,second compound 0.00949 µM,< 3.16 nM
same,IC50,second compound 0.03 µM,< 3.16 nM
same,IC50,second compound 0.0949 µM,< 3.16 nM
same,IC50,second compound 0.3 µM,< 3.16 nM
same,"viability, T/C",[1],26%
same,"viability, T/C",[2],26.8%
same,"viability, T/C",[3],15.6%
same,"viability, T/C",[4],19.6%
same,"viability, T/C",[5],16.4%
same,"viability, T/C",[6],8.5%
same,"viability, T/C",[7],21.8%
same,"viability, T/C",[8],17.2%
same,"viability, T/C",[9],15.4%
same,"viability, T/C",[10],14.5%
same,"viability, T/C",[11],12.3%
same,"viability, T/C",[12],13.5%
same,"viability, T/C",[13],15.1%
same,"viability, T/C",[14],11%
same,"viability, T/C",[15],12.7%
same,"viability, T/C",[16],12.7%
same,"viability, T/C",[17],12%
same,"viability, T/C",[18],8.59%
same,"viability, T/C",[19],13.4%
same,"viability, T/C",[20],12.9%
same,"viability, T/C",[21],12.2%
same,"viability, T/C",[22],12.7%
same,"viability, T/C",[23],8.4%
same,"viability, T/C",[24],10.3%
same,"viability, T/C",[25],12.6%
same,"viability, T/C",[26],12.5%
same,"viability, T/C",[27],12.3%
same,"viability, T/C",[28],12.4%
same,"viability, T/C",[29],11%
same,"viability, T/C",[30],10.8%
same,"viability, T/C",[31],12%
same,"viability, T/C",[32],11.5%
same,"viability, T/C",[33],12.7%
same,"viability, T/C",[34],11.5%
same,"viability, T/C",[35],8.36%
same,"viability, T/C",[36],9.92%
